Drawing on patent publication EP1018866B1, “COMPOSITIONS AND METHODS FOR THE PRESERVATION OF LIVING TISSUES” (Biostore New Zealand Limited, priority 1996, dated 1997), this text covers embryos hatched and embryos to hatch for one compound.

The test deals with mouse embryos. In words: Storage of mouse embryos in Solution 70/30 at 4 °C with or without sodium butyrate pretreatment. Format: cell-based.

Method: Mouse embryos were incubated with either sodium butyrate or a Class II solute at either room temperature, 30 °C or 4 °C prior to storage in Solution 70/30 for up to five days at 4 °C. […] Sodium butyrate replaced sodium chloride at the same concentration in PBS.

Consider `CCCC(=O)[O-].[Na+]` [sodium butyrate], for which the embryos hatched entry (pretreatment with higher concentrations of sodium butyrate, 5 days of storage in Solution 70/30) is listed as “up to 70%”. The embryos to hatch result (pretreatment with sodium butyrate, three days of storage in Solution 70/30 at 4 °C) is on record as “up to 80%”.
